Results published in patent publication US20260217706A1, “HETEROCYCLIC COMPOUNDS, PREPARATION METHOD THEREFOR AND USE THEREOF” (GUANGZHOU YUFAN NANTU BIOTECHNOLOGIES CO., LTD, priority 2023, published 2026).

Molecular target: CBL-B protein (Homo sapiens, UniProt Q13191)
Experiment: CBL-B binding experiment (Streptavidin-Tb cryptate / Ligand L1 displacement)
Conditions: 8 nM CBL-B protein, 25° C., 60 minutes; Ki=Relative IC50/2
Method: The reaction system mainly includes 1× buffer, 20 mM HEPES pH 7.5, 150 mM NaCl, 0.01% Triton X-100, 0.5 mM TCEP, and 0.1% ug/ml BSA. The compound is continuously diluted with DMSO for 10 concentration points, and 150 nL is transferred to the experimental plate. The experimental reaction begins after adding 8 nM of CBL-B protein and the reaction is carried out at 25° C. for 60 minutes. […] After an additional 60 minutes of incubation at room temperature, the experimental plate is read using an EnVision plate. The luminescence signal values were converted to percentage inhibition rates. Inhibition %=(Sample value−Maximum value)/(Minimum value−Maximum value)×100. The minimum value refers to the measured value in the wells without CBL-B protein but with DMSO and Ligand, while the maximum value refers to the measured value in the wells with DMSO, CBL-B protein, and Ligand. The IC50 values are calculated by XLFit (version 5.3.1.3) in Excel. Equation: Y=Bottom+(Top−Bottom)/(1+(IC50/X)^HillSlope); Ki=Relative IC50/2.

Chain of CBL-B protein (Q13191 whole entry): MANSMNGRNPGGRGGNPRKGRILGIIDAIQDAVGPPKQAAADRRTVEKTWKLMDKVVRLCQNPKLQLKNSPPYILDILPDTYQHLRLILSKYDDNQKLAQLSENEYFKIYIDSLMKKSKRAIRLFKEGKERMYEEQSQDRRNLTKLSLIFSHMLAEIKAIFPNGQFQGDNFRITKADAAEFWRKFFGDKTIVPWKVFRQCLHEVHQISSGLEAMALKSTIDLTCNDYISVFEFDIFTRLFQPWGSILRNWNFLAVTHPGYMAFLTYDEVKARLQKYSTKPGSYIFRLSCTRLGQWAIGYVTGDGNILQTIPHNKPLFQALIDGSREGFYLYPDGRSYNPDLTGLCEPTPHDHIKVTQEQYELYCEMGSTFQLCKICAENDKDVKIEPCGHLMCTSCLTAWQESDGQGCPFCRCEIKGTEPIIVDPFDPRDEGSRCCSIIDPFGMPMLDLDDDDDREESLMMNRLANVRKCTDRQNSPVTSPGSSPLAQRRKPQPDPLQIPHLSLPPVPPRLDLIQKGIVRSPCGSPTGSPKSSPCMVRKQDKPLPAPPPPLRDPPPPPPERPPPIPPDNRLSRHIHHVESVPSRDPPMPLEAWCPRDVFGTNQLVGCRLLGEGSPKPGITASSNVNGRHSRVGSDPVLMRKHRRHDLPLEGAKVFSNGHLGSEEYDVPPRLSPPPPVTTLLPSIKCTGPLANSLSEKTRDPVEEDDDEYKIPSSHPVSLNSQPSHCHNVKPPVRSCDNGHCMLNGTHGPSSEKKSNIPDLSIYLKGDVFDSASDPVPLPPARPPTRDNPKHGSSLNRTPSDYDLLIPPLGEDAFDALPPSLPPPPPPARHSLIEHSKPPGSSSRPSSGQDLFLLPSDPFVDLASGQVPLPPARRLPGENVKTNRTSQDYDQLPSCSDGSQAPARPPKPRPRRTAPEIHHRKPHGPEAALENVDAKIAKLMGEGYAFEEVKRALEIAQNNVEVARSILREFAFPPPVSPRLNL

Ki [nM] | SMILES
< 50 | C[C@H]1CCCN(Cc2cc3c(C4CC4)cn(-c4cccc([C@H](c5nncn5C)C5CCC5)c4)c(=O)c3[nH]2)C1 [Compound T012, 6-(3-((R)-cyclobutyl(4-methyl-4H-1,2,4-triazol-3-yl)methyl)phenyl)-4-cyclopropyl-2-(((S)-3-methylpiperidin-1-yl)methyl)-1,6-dihydro-7H-pyrrolo[2,3-c]pyridin-7-one]
< 50 | Cn1cnnc1C1(c2cccc(-n3cc(C(F)(F)F)c4cc(CN5CC6CC5CC6(F)F)[nH]c4c3=O)c2)CCC1 (centres unmarked) [Compound T105, 2-[(5,5-difluoro-2-azabicyclo[2.2.1]heptan-2-yl)methyl]-6-[3-[1-(4-methyl-1,2,4-triazol-3-yl)cyclobutyl]phenyl]-4-(trifluoromethyl)-1H-pyrrolo[2,3-c]pyridin-7-one]
< 50 | CCN(CC)Cc1cc2c(C(F)(F)F)cn(-c3cccc([C@]4(c5nncn5C)C[C@H](OC)C4)c3)c(=O)c2[nH]1 [Compound T118, 2-((diethylamino)methyl)-6-(3-((1r,3r)-3-methoxy-1-(4-methyl-4H-1,2,4-triazol-3-yl)cyclobutyl)phenyl)-4-(trifluoromethyl)-1,6-dihydro-7H-pyrrolo[2,3-c]pyridin-7-one]
< 50 | CO[C@H]1C[C@](c2cccc(-n3cc(C(F)(F)F)c4cc(CN5CC6CC6C5)[nH]c4c3=O)c2)(c2nncn2C)C1 (some centres unmarked) [Compound T144, 2-((3-azabicyclo[3.1.0]hexan-3-yl)methyl)-6-(3-((1r,3r)-3-methoxy-1-(4-methyl-4H-1,2,4-triazol-3-yl)cyclobutyl)phenyl)-4-(trifluoromethyl)-1,6-dihydro-7H-pyrrolo[2,3-c]pyridin-7-one]
< 50 | CC1CC(c2cc(C(=O)O)cc(-n3cc(C(F)(F)F)c4cc(CN5CCC[C@H](C)C5)[nH]c4c3=O)c2)(c2nncn2C)C1 (stereo partly drawn) [Compound T128, 3-[3-methyl-1-(4-methyl-1,2,4-triazol-3-yl)cyclobutyl]-5-[2-[[(3S)-3-methyl-1-piperidyl]methyl]-7-oxo-4-(trifluoromethyl)-1H-pyrrolo[2,3-c]pyridin-6-yl]benzoic acid]
< 50 | Cc1cn(-c2cccc(C3(Cc4nncn4C)COC3)c2)c(=O)c2[nH]c(CN3CCC[C@H](C)C3)cc12 [Compound T003, 4-methyl-2-[[(3S)-3-methyl-1-piperidyl]methyl]-6-[3-[3-[(4-methyl-1,2,4-triazol-3-yl)methyl]oxetan-3-yl]phenyl]-1H-pyrrolo[2,3-c]pyridin-7-one]
100 to 500 | Cn1cnnc1C1(c2cccc(-n3cc(C(F)(F)F)c4cc(CN5CCC[C@@]6(CCOC6)C5)[nH]c4c3=O)c2)CCC1 [Compound T124, (R)-2-((2-oxa-7-azaspiro[4.5]decan-7-yl)methyl)-6-(3-(1-(4-methyl-4H-1,2,4-triazol-3-yl)cyclobutyl)phenyl)-4-(trifluoromethyl)-1,6-dihydro-7H-pyrrolo[2,3-c]pyridin-7-one]
< 50 | C[C@H]1CCCN(Cc2cc3c(Br)cn(-c4cccc(C5(Cc6nncn6C)COC5)c4)c(=O)c3[nH]2)C1 [Compound T090, (S)-4-bromo-6-(3-(3-((4-methyl-4H-1,2,4-triazol-3-yl)methyl)oxetan-3-yl)phenyl)-2-((3-methylpiperidin-1-yl)methyl)-1,6-dihydro-7H-pyrrolo[2,3-c]pyridin-7-one]
< 50 | CCN(Cc1cc2c(C(F)(F)F)cn(-c3cccc([C@]4(c5nncn5C)C[C@H](OC)C4)c3)c(=O)c2[nH]1)C(C)C [Compound T193]
< 50 | CO[C@H]1C[C@@](c2cccc(-n3cc(C(F)(F)F)c4cc(CN5CCCC(C(F)F)C5)[nH]c4c3=O)c2)(c2nncn2C)C1 (some centres unmarked) [Compound T155, 2-((3-(difluoromethyl)piperidin-1-yl)methyl)-6-(3-((1s,3s)-3-methoxy-1-(4-methyl-4H-1,2,4-triazol-3-yl)cyclobutyl)phenyl)-4-(trifluoromethyl)-1,6-dihydro-7H-pyrrolo[2,3-c]pyridin-7-one]
< 50 | C[C@H]1CCCN(Cc2cc3ccn(-c4cccc(C5(Cc6nncn6C)COC5)c4)c(=O)c3[nH]2)C1 [Compound T001, (S)-6-(3-(3-((4-methyl-4H-1,2,4-triazol-3-yl)methyl)oxetan-3-yl)phenyl)-2-((3-methylpiperidin-1-yl)methyl)-1,6-dihydro-7H-pyrrolo[2,3-c]pyridin-7-one]
< 50 | CC(C)c1cn(-c2cccc(C3(Cc4nncn4C)COC3)c2)c(=O)c2[nH]c(CN3CCC[C@H](C)C3)cc12 [Compound T022, 4-isopropyl-2-[[(3S)-3-methyl-1-piperidyl]methyl]-6-[3-[3-[(4-methyl-1,2,4-triazol-3-yl)methyl]oxetan-3-yl]phenyl]-1H-pyrrolo[2,3-c]pyridin-7-one]

Further lines, the compound ahead of its results:

SMILES | Ki [nM]
Cn1cnnc1C1(c2cccc(-n3cc(C(F)(F)F)c4cc(CN5CCC[C@]6(CCOC6)C5)[nH]c4c3=O)c2)CCC1 [Compound T123, (S)-2-((2-oxa-7-azaspiro[4.5]decan-7-yl)methyl)-6-(3-(1-(4-methyl-4H-1,2,4-triazol-3-yl)cyclobutyl)phenyl)-4-(trifluoromethyl)-1,6-dihydro-7H-pyrrolo[2,3-c]pyridin-7-one] | < 50
Cn1cnnc1CC1(c2cccc(-n3cc(C4CC4)c4cc(CN5CCCCC5)[nH]c4c3=O)c2)COC1 [Compound T006, 4-cyclopropyl-6-[3-[3-[(4-methyl-1,2,4-triazol-3-yl)methyl]oxetan-3-yl]phenyl]-2-(1-piperidylmethyl)-1H-pyrrolo[2,3-c]pyridin-7-one] | < 50
Cn1cnnc1C1(c2cccc(-n3cc(C(F)(F)F)c4cc(CN5CCC[C@H](F)C5)[nH]c4c3=O)c2)CCC1 [Compound T048, 2-[[(3S)-3-fluoro-1-piperidyl]methyl]-6-[3-[1-(4-methyl-1,2,4-triazol-3-yl)cyclobutyl]phenyl]-4-(trifluoromethyl)-1H-pyrrolo[2,3-c]pyridin-7-one] | < 50
CO[C@H]1C[C@@](c2cccc(-n3cc(C(F)(F)F)c4cc(CN5CC6CC6C5)[nH]c4c3=O)c2)(c2nncn2C)C1 (some centres unmarked) [Compound T143, 2-((3-azabicyclo[3.1.0]hexan-3-yl)methyl)-6-(3-((1s,3s)-3-methoxy-1-(4-methyl-4H-1,2,4-triazol-3-yl)cyclobutyl)phenyl)-4-(trifluoromethyl)-1,6-dihydro-7H-pyrrolo[2,3-c]pyridin-7-one] | < 50
CC(C)C1CN(C)CCN1Cc1cc2c(C3CC3)cn(-c3cccc([C@]4(c5nncn5C)C[C@@H](C)C4)c3)c(=O)c2[nH]1 (some centres unmarked) [Compound T094, 4-cyclopropyl-2-((2-isopropyl-4-methylpiperazin-1-yl)methyl)-6-(3-((1s,3s)-3-methyl-1-(4-methyl-4H-1,2,4-triazol-3-yl)cyclobutyl)phenyl)-1,6-dihydro-7H-pyrrolo[2,3-c]pyridin-7-one] | < 50
Cn1cnnc1C1(c2cccc(-n3cc(C(F)(F)F)c4cc(CN5CCC(F)(F)CC5)[nH]c4c3=O)c2)CCC1 [Compound T075, 2-[(4,4-difluoro-1-piperidyl)methyl]-6-[3-[1-(4-methyl-1,2,4-triazol-3-yl)cyclobutyl]phenyl]-4-(trifluoromethyl)-1H-pyrrolo[2,3-c]pyridin-7-one] | < 50
Cn1cnnc1C1(c2cccc(-n3cc(C(F)(F)F)c4cc(CN5CCC(C(F)F)CC5)[nH]c4c3=O)c2)CCC1 [Compound T112, 2-[[4-(difluoromethyl)-1-piperidyl]methyl]-6-[3-[1-(4-methyl-1,2,4-triazol-3-yl)cyclobutyl]phenyl]-4-(trifluoromethyl)-1H-pyrrolo[2,3-c]pyridin-7-one] | < 50
Cn1cnnc1C1(c2cccc(-n3cc(C(F)(F)F)c4cc(CN5C[C@@H](F)[C@@H](F)C5)[nH]c4c3=O)c2)CCC1 [Compound T049, 2-[[(3R,4S)-3,4-difluoropyrrolidin-1-yl]methyl]-6-[3-[1-(4-methyl-1,2,4-triazol-3-yl)cyclobutyl]phenyl]-4-(trifluoromethyl)-1H-pyrrolo[2,3-c]pyridin-7-one] | < 50
COCC1(NCc2cc3c(C(F)(F)F)cn(-c4cccc([C@]5(c6nncn6C)C[C@H](OC)C5)c4)c(=O)c3[nH]2)CC1 [Compound T099, 6-(3-((1r,3r)-3-methoxy-1-(4-methyl-4H-1,2,4-triazol-3-yl)cyclobutyl)phenyl)-2-(((1-(methoxymethyl)cyclopropyl)amino)methyl)-4-(trifluoromethyl)-1,6-dihydro-7H-pyrrolo[2,3-c]pyridin-7-one] | < 50
Cn1cnnc1C1(c2cccc(-n3cc(C(F)(F)F)c4cc(CNCC(F)(F)CO)[nH]c4c3=O)c2)CCC1 [Compound T050, 2-[[(2,2-difluoro-3-hydroxy-propyl)amino]methyl]-6-[3-[1-(4-methyl-1,2,4-triazol-3-yl)cyclobutyl]phenyl]-4-(trifluoromethyl)-1H-pyrrolo[2,3-c]pyridin-7-one] | < 50
CO[C@H]1C[C@@](c2cccc(-n3cc(C(F)(F)F)c4cc(CNCCC5CC5)[nH]c4c3=O)c2)(c2nncn2C)C1 [Compound T153, 2-(((2-cyclopropylethyl)amino)methyl)-6-(3-((1s,3s)-3-methoxy-1-(4-methyl-4H-1,2,4-triazol-3-yl)cyclobutyl)phenyl)-4-(trifluoromethyl)-1,6-dihydro-7H-pyrrolo[2,3-c]pyridin-7-one] | < 50
